Measured values: US7368437B1, “Bicyclic heterocycles, processes for their preparation and their use as herbicides and pharmaceutical agents” (Bayer CropScience AG, priority 1999, dated 2008)

Tests used:
[1] = test system: Xanthomonas oryzae; details: stated in the literature; cited from earlier work

SMILES	melting point [°C]	action against Xanthomonas oryzae [1]
OC[C@H]1O[C@@H](c2n[nH]c3cncnc23)[C@H](O)[C@@H]1O [Ib, 3-β-D-Ribofuranosyl-1H-pyrazolo[4,3-d]pyrimidine]	227 to 228	fungicidal action
CN(C)c1ncc2nnc([C@@H]3O[C@H](COC(=O)c4ccccc4)[C@@H](OC(=O)c4ccccc4)[C@H]3OC(=O)c3ccccc3)n2n1 [If, 6-Dimethylamino-3-(2′,3′,5′-tri-O-benzoyl-β-ribofuranosyl)-1,2,4-triazolo-[3,4-f]-1,2,4-triazine]	79 to 80	–
CN(C)c1ncc2nnc([C@@H]3O[C@H](CO)[C@@H](O)[C@H]3O)n2n1 [Ig, 6-Dimethylamino-3-β-ribofuranosyl-1,2,4-triazolo[3,4-f]-1,2,4-triazine]	171 to 173	–
